Key:
[1] = ICG fluorescence imaging, IVIS and clinical endoscope; assay type: physicochemical
Description: A Karl Storz 4 mm×18 cm ICG endoscope (Karl Storz, Tuttlingen, Germany) attached with a Power LED light source with fiber optic ICG cable and Karl Storz Image is Video System with ICG High Def Camera Head (Karl Storz, Tuttlingen, Germany) was used for imaging the ICG at different concentrations. ICG solution was prepared by mixing 25 mg of ICG in 1 mL of water, resulting in a 25 mg/mL solution. The solution was diluted by half in subsequent wells of a 96-well plate, and the last well was filled with only water (negative control). The endoscope's imaging head was held 4 mm above the surface of the 96-well plate to acquire images. Fluorescent light was captured by the camera and shown as blue. The intensity of the fluorescent light was quantified using the Zen Lite Blue software version 2.6 (Zeiss, Oberkochen, Germany). A fixed area of equal size for each well was selected, and the fluorescence was quantified by taking the arithmetic mean intensity of blue contribution for that particular region in pixels. IVIS was used to image ICG at different concentrations. […] An overlay image combination of photographic and fluorescent image was recorded. The region of interest (ROI) tool was used to perform quantification of the surface intensities. Equal size ROIs were drawn on each well of the plate, and the radiant efficiency was recorded by the software for each defined ROI. […]

L-929 fibroblasts = experiment: Cytotoxicity of ICG and SELP-ICG, CCK-8, L-929; assay type: cell-based, murine; settings: L929 cells, 24 hrs, as ICG concentration
Text: (§1) L-929 and HUVEC were selected for use in assessing the cytotoxicity of the SELP-ICG embolic based upon their utility with respect to regulatory testing and relevance to the intended application of the device. L-929 cells are commonly used for FDA testing of contact cytotoxicity of medical devices, such as embolics. HUVEC represents a human cell line, another common cell that is also frequently used for evaluating cytotoxicity. Additionally, HUVEC represents vascular endothelial cells that embolic SELP will be in close contact with during in vivo administration. L-929 fibroblasts were grown with Dulbecco's Modified Eagle Medium (DMEM):F12 (1:1) media, supplemented with 10% FBS, and HUVECs were grown in ECGM. The cells were grown in T-75 flasks at 37° C. with 5% CO2 and passaged at 80-95% confluency. Cells were suspended using TrypLE™ Express Enzyme with no phenol red according to the manufactures protocol. The viability of cells was assessed using 0.4% trypan blue stain using a Countess Automated Cell Counter (ThermoFisher Scientific, Waltham, Mass.). L-929 cells were seeded into new T-75 flasks with 3×10^5 to 6×10^5 viable cells. […] Viability was measured after 24 hrs using a Cell Counting Kit (CCK)-8 assay kit (Dojindo, Kumamoto, Japan). […] LD50 values were determined by fitting the data to a Hill plot with a variable slope using GraphPad Prism 5.0.

HUVEC = experiment: Cytotoxicity of ICG and SELP-ICG, CCK-8, HUVEC; assay type: cell-based, human; settings: 24 hrs, as ICG concentration
Text: as §1

[2] = cited from earlier work

For `CC1(C)C(/C=C/C=C/C=C/C=C2\N(CCCCS(=O)(=O)O)c3ccc4ccccc4c3C2(C)C)=[N+](CCCCS(=O)(=O)[O-])c2ccc3ccccc3c21` [ICG, Indocyanine green], the “optimal concentration for fluorescence” value ([1]; IVIS and Karl Storz ICG endoscope) was 0.012 mg/mL, the “concentration above which self-quenching occurs” value ([1]; image analysis) was “higher than 0.012 mg/mL” and the LD50 (L-929 fibroblasts) was 0.28 ± 0.14 mg/mL. For the same compound, the LD50 (HUVEC) was 0.068 ± 0.009 mg/mL, the half-life ([2]; clearance from the bloodstream after intravenous administration) was 3 to 5 min and the “share of the dose remaining within the tumor by the time of surgery” value ([2]; intravenous administration) was “approximately 0.05%”.

Source: patent publication US20230218723A1, “COMPOSITIONS AND METHODS FOR USING SILK-ELASTINLIKE PROTEIN-BASED POLYMERS” (University of Utah Research Foundation, priority 2019, published 2023)
